Data published in patent US20130296228A1, “EFFLUX PUMP INHIBITORS” (priority 2010, published 2013).

Key:
[1] = tested on: P. aeruginosa 23587; assay: Survival of high density inoculation in MHA medium; format: cell-based; settings: high density inoculation 2-5 × 10^9 CFU/ml; 32 mcg/ml in MHA medium
[2] = tested on: MDR clinical isolate of P. aeruginosa 2301; assay: Systemic infection in mice, % survival; format: in vivo; settings: for % survival: Table 5, mice, Subcutaneous
[3] = tested on: P. aeruginosa 23587; assay: Diameter of zone of inhibition of antimicrobial agents with or without efflux pump inhibitor; format: cell-based
Excerpt: Since RND efflux pumps operate by utilizing energy in […], metabolic inhibitor, sodium azide brings about MDR RND pump inhibition by causing energy deprivation.

[4] = tested on: MDR P. aeruginosa; assay: Enhanced killing: viable count over time; format: cell-based
Description: Table 4 results of efflux pump inhibition based cidal synergy between S-(−)-9-Fluoro-8-(4-hydroxy-piperidin-1-yl)-5-methyl-6,7-dihydro-1-oxo-1H,5H-benzo[i,j]quinolizine-2-carboxylic acid L-arginine salt tetrahydrate nd ceftazidime. Potent cidal synergy is observed between S-(−)-9-Fluoro-8-(4-hydroxy-piperidin-1-yl)-5-methyl-6,7-dihydro-1-oxo-1H,5H-benzo[i,j]quinolizine-2-carboxylic acid L-arginine salt tetrahydrate (concentration, 8 μg/ml) and ceftazidime (concentration, 8 and 16 μg/ml). These concentrations are at least 4 times lower than their MIC. […] Thus the efflux pump inhibition based synergy is not just growth inhibitory but also, most importantly, imparts extensive killing of the pathogen.

[5] = tested on: highly resistant P. aeruginosa strains; assay: MIC; format: cell-based; settings: highly resistant P. aeruginosa strains used for infecting animals
[6] = tested on: P. aeruginosa 2301; assay: Diameter of zone of inhibition of antimicrobial agents with or without efflux pump inhibitor; format: cell-based; settings: for Diameter of zone of inhibition: P. aeruginosa 2301

C[C@H]1CCc2c(N3CCC(O)CC3)c(F)cc3c(=O)c(C(=O)O)cn1c23.N=C(N)NCCC[C@H](N)C(=O)O.O.O.O.O [S-(−)-9-Fluoro-8-(4-hydroxy-piperidin-1-yl)-5-methyl-6,7-dihydro-1-oxo-1H,5H-benzo[i,j]quinolizine-2-carboxylic acid L-arginine salt tetrahydrate]
CFU/ml at 48 h [1]: >5 × 10^9 CFU/ml
% survival ([2]; 50 mg/kg BID × 1 day): 0%
% survival ([2]; 75 mg/kg BID × 1 day): 33.3%
% survival ([2]; 100 mg/kg BID × 1 day): 100%
protection of infected animals, agent individually ([2]; quinolone arginine salt 50 mg/kg, ceftazidime 300 mg/kg): could not protect
change of activity on addition of sodium azide [3]: potentiated
change of activity in the presence of cefepime and ceftazidime ([3]; Example 3): significant potentiation
Diameter of zone of inhibition ([3]; Table 1, P. aeruginosa 23587, +PAN (20 μg/ml), 4 μg/well): 30 m.m.
Diameter of zone of inhibition ([3]; Table 1, P. aeruginosa 23587, +PAN (20 μg/ml), 8 μg/well): 34 m.m.
Diameter of zone of inhibition ([3]; Table 1, P. aeruginosa 23587, +PAN (20 μg/ml), 16 μg/well): 35 m.m.
Diameter of zone of inhibition ([3]; Table 1, P. aeruginosa 23587, Control, 4 μg/well): Nil
Diameter of zone of inhibition ([3]; Table 1, P. aeruginosa 23587, Control, 8 μg/well): 12 m.m.
Diameter of zone of inhibition ([3]; Table 1, P. aeruginosa 23587, Control, 16 μg/well): 15 m.m.
Diameter of zone of inhibition ([3]; Table 2, P. aeruginosa (23587), +Reserpine (25 μg/ml), 8 μg/well): Nil
Diameter of zone of inhibition ([3]; Table 2, P. aeruginosa (23587), +Reserpine (25 μg/ml), 16 μg/well): 11 m.m.
Diameter of zone of inhibition ([3]; Table 2, P. aeruginosa (23587), +Reserpine (25 μg/ml), 32 μg/well): 15 m.m.
Diameter of zone of inhibition ([3]; Table 2, P. aeruginosa (23587), +sodium azide (10 μg/ml), 8 μg/well): 12 m.m.
Diameter of zone of inhibition ([3]; Table 2, P. aeruginosa (23587), +sodium azide (10 μg/ml), 16 μg/well): 15 m.m.
Diameter of zone of inhibition ([3]; Table 2, P. aeruginosa (23587), +sodium azide (10 μg/ml), 32 μg/well): 20 m.m.
Diameter of zone of inhibition ([3]; Table 2, P. aeruginosa (23587), Control, 8 μg/well): Nil
Diameter of zone of inhibition ([3]; Table 2, P. aeruginosa (23587), Control, 16 μg/well): 11 m.m.
Diameter of zone of inhibition ([3]; Table 2, P. aeruginosa (23587), Control, 32 μg/well): 15 m.m.
Diameter of zone of inhibition ([3]; Table 3, P. aeruginosa 23587, +Cefepime (1 μg/ml), 8 μg/Well): 12 m.m.
Diameter of zone of inhibition ([3]; Table 3, P. aeruginosa 23587, +Cefepime (1 μg/ml), 16 μg/Well): 18 m.m.
Diameter of zone of inhibition ([3]; Table 3, P. aeruginosa 23587, +Cefepime (1 μg/ml), 32 μg/Well): 24 m.m.
Diameter of zone of inhibition ([3]; Table 3, P. aeruginosa 23587, +Ceftazidime (1 μg/ml), 8 μg/Well): 20 m.m.
Diameter of zone of inhibition ([3]; Table 3, P. aeruginosa 23587, +Ceftazidime (1 μg/ml), 16 μg/Well): 25 m.m.
Diameter of zone of inhibition ([3]; Table 3, P. aeruginosa 23587, +Ceftazidime (1 μg/ml), 32 μg/Well): 33 m.m.
Diameter of zone of inhibition ([3]; Table 3, P. aeruginosa 23587, Control, 8 μg/Well): 9 m.m.
Diameter of zone of inhibition ([3]; Table 3, P. aeruginosa 23587, Control, 16 μg/Well): 14.5 m.m.
Diameter of zone of inhibition ([3]; Table 3, P. aeruginosa 23587, Control, 32 μg/Well): 19.5 m.m.
change of activity in the presence of PAN ([3]; clinical isolates P. aeruginosa 23587 and P. aeruginosa 2301): Synergistic enhancement
viable count ([4]; 8 μg/ml, 0 h): 6.11 Log CFU/ ml
viable count ([4]; 8 μg/ml, 24 h): 8.64 Log CFU/ ml
viable count ([4]; 8 μg/ml, 48 h): 9.4 Log CFU/ ml
viable count ([4]; 16 μg/ml, 0 h): 6.11 Log CFU/ ml
viable count ([4]; 16 μg/ml, 24 h): 4.30 Log CFU/ ml
viable count ([4]; 16 μg/ml, 48 h): <3.0 Log CFU/ ml
killing effect of the agent individually ([4]; quinolone arginine salt 8 μg/ml, ceftazidime 8 and 16 μg/ml): ineffective
MIC [5]: 16 µg/mL
change of activity in the presence of cefepime and ceftazidime ([6]; Example 6): significant potentiation
Diameter of zone of inhibition ([6]; Table 1, +PAN (20 μg/ml), 4 μg/well): 25 m.m.
Diameter of zone of inhibition ([6]; Table 1, +PAN (20 μg/ml), 8 μg/well): 32 m.m.
Diameter of zone of inhibition ([6]; Table 1, +PAN (20 μg/ml), 16 μg/well): 38 m.m.
Diameter of zone of inhibition ([6]; Table 1, Control, 4 μg/well): 15.5 m.m.
Diameter of zone of inhibition ([6]; Table 1, Control, 8 μg/well): 20 m.m.
Diameter of zone of inhibition ([6]; Table 1, Control, 16 μg/well): 23.5 m.m.
Diameter of zone of inhibition ([6]; Table 6, +Cefepime (2 μg/ml), 8 μg/Well): 12 m.m.
Diameter of zone of inhibition ([6]; Table 6, +Cefepime (2 μg/ml), 16 μg/Well): 18 m.m.
Diameter of zone of inhibition ([6]; Table 6, +Cefepime (2 μg/ml), 32 μg/Well): 24 m.m.
Diameter of zone of inhibition ([6]; Table 6, +Ceftazidime (0.5 μg/ml), 8 μg/Well): 20 m.m.
Diameter of zone of inhibition ([6]; Table 6, +Ceftazidime (0.5 μg/ml), 16 μg/Well): 25 m.m.
Diameter of zone of inhibition ([6]; Table 6, +Ceftazidime (0.5 μg/ml), 32 μg/Well): 33 m.m.
Diameter of zone of inhibition ([6]; Table 6, Control, 8 μg/Well): 9 m.m.
Diameter of zone of inhibition ([6]; Table 6, Control, 16 μg/Well): 14.5 m.m.
Diameter of zone of inhibition ([6]; Table 6, Control, 32 μg/Well): 19.5 m.m.
